Key:
[1] = in vitro metabolic stability in human liver microsomes; format: in vitro ADME; conditions: 0.5 μM compound, 0.5 mg/mL microsomes, NADPH, 40 min, 37° C.; for CLint scaled at 0.5 μM: human, liver microsomes, read-out: Human liver microsome Clapp (apparent intrinsic clearance)
Method: To assess the in vitro metabolic stability, the compounds (0.5 μM) were incubated in duplicates with human liver microsomes (0.5 mg/mL) in phosphate buffer and NADPH, in 96-well plates for 40 min (37° C.), using a liquid handling robot (Hamilton Microlab Star). Sample aliquots were taken at 0, 5, 10, 20 and 40 min, and dispensed into cold acetonitrile, in order to stop the reactions. The plates were centrifuged for 30 minutes before the samples were analyzed using liquid chromatography coupled to a time-of-flight mass spectrometer (AB Sciex API5600). The compound depletion over time was used to estimate the elimination rate constant, from which the apparent intrinsic clearance, Clapp, was calculated and the values are listed in Table 2.

JAK1 = JAK1 (Homo sapiens (Human), UniProt P23458); assay: JAK kinase assay (HTRF), JAK1; format: biochemical; conditions: catalytic domain, ATP at Km (7 μM)
Sequence of JAK1 (P23458 850-1154): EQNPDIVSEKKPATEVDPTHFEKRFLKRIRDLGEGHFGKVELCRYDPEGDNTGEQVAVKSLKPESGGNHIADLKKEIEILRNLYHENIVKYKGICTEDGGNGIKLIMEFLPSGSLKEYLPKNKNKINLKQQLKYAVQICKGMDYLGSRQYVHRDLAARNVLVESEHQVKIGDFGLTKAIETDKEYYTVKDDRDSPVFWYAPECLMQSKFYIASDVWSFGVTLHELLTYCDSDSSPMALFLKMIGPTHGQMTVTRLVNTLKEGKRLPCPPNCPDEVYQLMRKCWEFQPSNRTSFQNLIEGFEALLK
Summary of the method: (§1)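 Catalytic-domain human JAK1 (GST-tagged, aa 850-1154) or His-tagged JAK2, baculovirus-expressed, phosphorylated 1 µM biotinylated TK peptide at Km ATP (JAK1 7 µM, 10 mM MgCl2, 50 nM SEB; JAK2 4 µM, 5 mM MgCl2) in pH 7.0 Hepes, 20-30 min RT. EDTA stop; overnight streptavidin-XL665/cryptate HTRF read.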

TYK2 = TYK2 (Homo sapiens (Human), UniProt P29597); assay: JAK kinase assay (HTRF), TYK2; format: biochemical; conditions: catalytic domain, ATP at Km (13 μM)
Sequence of TYK2 (P29597 871-1187): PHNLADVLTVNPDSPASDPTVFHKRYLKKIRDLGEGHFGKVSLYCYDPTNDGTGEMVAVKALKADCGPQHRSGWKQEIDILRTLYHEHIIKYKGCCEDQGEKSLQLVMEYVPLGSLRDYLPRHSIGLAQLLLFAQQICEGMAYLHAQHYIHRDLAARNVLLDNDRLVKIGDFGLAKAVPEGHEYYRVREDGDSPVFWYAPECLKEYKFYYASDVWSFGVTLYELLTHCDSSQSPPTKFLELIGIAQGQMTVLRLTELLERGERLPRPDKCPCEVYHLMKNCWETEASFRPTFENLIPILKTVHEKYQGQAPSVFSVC
Summary of the method: (§2)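 Catalytic-domain human kinases, GST-tagged TYK2 (aa 871-1187) and His-tagged JAK3, phosphorylate 1 μM TK Substrate-Biotin for 20-30 min at RT in 50 mM Hepes pH 7.0, 5 mM MgCl2, ATP at Km (TYK2 13 μM with 50 nM SEB; JAK3 2 μM). Phosphorylation detected by HTRF.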

JAK3 = JAK3 (Homo sapiens (Human), UniProt P52333); assay: JAK kinase assay (HTRF), JAK3; format: biochemical; conditions: catalytic domain, ATP at Km (2 μM)
Sequence of JAK3 (P52333 822-1111): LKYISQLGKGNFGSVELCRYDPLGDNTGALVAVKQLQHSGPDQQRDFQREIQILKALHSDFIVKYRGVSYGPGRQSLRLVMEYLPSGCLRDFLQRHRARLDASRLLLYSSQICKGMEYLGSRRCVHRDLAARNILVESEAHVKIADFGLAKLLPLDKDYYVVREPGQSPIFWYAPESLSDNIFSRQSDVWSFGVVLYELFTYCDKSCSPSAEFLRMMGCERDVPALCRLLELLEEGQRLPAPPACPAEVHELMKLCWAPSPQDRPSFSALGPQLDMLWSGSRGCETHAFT
Summary of the method: as §2

JAK2 = JAK2 (Homo sapiens (Human), UniProt O60674); assay: JAK kinase assay (HTRF), JAK2; format: biochemical; conditions: catalytic domain, ATP at Km (4 μM)
Sequence of JAK2 (O60674 849-1124): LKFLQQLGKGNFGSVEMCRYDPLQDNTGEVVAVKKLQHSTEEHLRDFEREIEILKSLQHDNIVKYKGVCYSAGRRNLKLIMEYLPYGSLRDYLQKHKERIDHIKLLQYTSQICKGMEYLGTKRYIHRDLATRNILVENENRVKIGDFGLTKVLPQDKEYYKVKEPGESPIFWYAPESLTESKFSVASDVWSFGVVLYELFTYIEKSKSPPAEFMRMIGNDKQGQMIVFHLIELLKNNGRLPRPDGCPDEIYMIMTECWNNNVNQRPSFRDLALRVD
Summary of the method: as §1

| SMILES | CLint scaled at 0.5 μM [1] [mL/min/kg] | EC50 (JAK1) [nM] | EC50 (TYK2) [nM] | EC50 (JAK3) [nM] | EC50 (JAK2) [nM] | Human liver microsome Clapp (apparent intrinsic clearance) [1] [mL/min/kg] |
| --- | --- | --- | --- | --- | --- | --- |
| O=C(N[C@@H](CO)[C@H](O)c1ccc(F)cn1)[C@H]1CCN(c2ncnc3[nH]ccc23)CC12CC2 (single isomer, unassigned) [Example 30] | 50 | 1.4 | 30.5 | 27.1 | 2.4 | – |
| Cc1cc([C@@H](O)CNC(=O)[C@H]2CCN(c3ncnc4[nH]ccc34)CC23CC3)ncc1F (single isomer, unassigned) [Example 110] | 195 | 11.1 | 188 | 75.3 | 26.3 | – |
| O=C(NC[C@@H](O)C1CCCC1)[C@H]1CCN(c2ncnc3[nH]ccc23)CC12CC2 [Example 1, (8S)-N-[(2S)-2-cyclopentyl-2-hydroxy-ethyl]-5-(7H-pyrrolo[2,3-d]pyrimidin-4-yl)-5-azaspiro[2.5]octane-8-carboxamide] | – | 0.5 | 3.6 | 3.3 | 1 | 190 |
| O=C(NCC(O)C1CCCCC1)[C@H]1CCN(c2ncnc3[nH]ccc23)CC12CC2 (stereo partly drawn) [Example 2, (8S)-N-(2-cyclohexyl-2-hydroxy-ethyl)-5-(7H-pyrrolo[2,3-d]pyrimidin-4-yl)-5-azaspiro[2.5]octane-8-carboxamide] | > 200 | 0.5 | 4.6 | 3.7 | 1.3 | – |
| C[C@H](NC(=O)[C@H]1CCN(c2ncnc3[nH]ccc23)CC12CC2)[C@@H](O)C1CCCCC1 [Example 3, (8S)-N-[(1S,2S)-2-cyclohexyl-2-hydroxy-1-methyl-ethyl]-5-(7H-pyrrolo[2,3-d]pyrimidin-4-yl)-5-azaspiro[2.5]octane-8-carboxamide] | > 200 | 0.5 | 6.2 | 3.4 | 1.1 | – |
| O=C(NC[C@@H](O)C1CCCCC1)[C@H]1CCN(c2ncnc3[nH]ccc23)CC12CC2 [Example 4, (8S)-N-[(2S)-2-cyclohexyl-2-hydroxy-ethyl]-5-(7H-pyrrolo[2,3-d]pyrimidin-4-yl)-5-azaspiro[2.5]octane-8-carboxamide] | > 200 | 0.5 | 4 | 3.4 | 1.2 | – |
| C[C@H](NC(=O)[C@H]1CCN(c2ncnc3[nH]ccc23)CC12CC2)[C@@H](O)C1CCCC1 [Example 5, (8S)-N-[(1S,2S)-2-cyclopentyl-2-hydroxy-1-methyl-ethyl]-5-(7H-pyrrolo[2,3-d]pyrimidin-4-yl)-5-azaspiro[2.5]octane-8-carboxamide] | > 200 | 0.6 | 6.3 | 2.3 | 1.1 | – |
| C[C@H](NC(=O)[C@H]1CCN(c2ncnc3[nH]ccc23)CC12CC2)[C@@H](O)c1ccc(F)cc1 [Example 6, (8S)-N-[(1S,2S)-2-(4-fluorophenyl)-2-hydroxy-1-methyl-ethyl]-5-(7H-pyrrolo[2,3-d]pyrimidin-4-yl)-5-azaspiro[2.5]octane-8-carboxamide] | > 200 | 0.6 | 7 | 7.4 | 1.4 | – |
| O=C(NC[C@@H](O)c1ccc(F)cc1)[C@H]1CCN(c2ncnc3[nH]ccc23)CC12CC2 [Example 7, (8S)-N-[(2S)-2-(4-fluorophenyl)-2-hydroxy-ethyl]-5-(7H-pyrrolo[2,3-d]pyrimidin-4-yl)-5-azaspiro[2.5]octane-8-carboxamide] | > 200 | 0.6 | 4.9 | 8.8 | 1.7 | – |
| N#Cc1ccc([C@H](O)CNC(=O)[C@H]2CCN(c3ncnc4[nH]ccc34)CC23CC3)cc1 [Example 8, (8S)-N-[(2S)-2-(4-cyanophenyl)-2-hydroxy-ethyl]-5-(7H-pyrrolo[2,3-d]pyrimidin-4-yl)-5-azaspiro[2.5]octane-8-carboxamide] | > 200 | 0.6 | 17.7 | 4.9 | 2.7 | – |
| N#Cc1ccc(CNC(=O)C2CCN(c3ncnc4[nH]ccc34)CC23CC3)nc1 (centres unmarked) [Example 76, N-[(5-cyano-2-pyridyl)methyl]-5-(7H-pyrrolo[2,3-d]pyrimidin-4-yl)-5-azaspiro[2.5]octane-8-carboxamide] | 139 | 6.2 | – | 53.6 | 43.3 | – |
| Cc1cc([C@@H](O)[C@H](C)NC(=O)[C@H]2CCN(c3ncnc4[nH]ccc34)CC23CC3)ncc1F [Example 133, (8S)-N-[(1S,2S)-2-(5-fluoro-4-methyl-2-pyridyl)-2-hydroxy-1-methyl-ethyl]-5-(7H-pyrrolo[2,3-d]pyrimidin-4-yl)-5-azaspiro[2.5]octane-8-carboxamide] | – | 27.3 | 375 | 148 | 37.5 | – |
| O=C(N[C@H](CO)c1ccccn1)[C@H]1CCN(c2ncnc3[nH]ccc23)CC12CC2 [Example 135, (8S)-N-[(1S)-2-hydroxy-1-(2-pyridyl)ethyl]-5-(7H-pyrrolo[2,3-d]pyrimidin-4-yl)-5-azaspiro[2.5]octane-8-carboxamide] | – | 33.2 | 466 | 148 | 83.8 | – |
| C[C@@H](NC(=O)C1CCN(c2ncnc3[nH]ccc23)CC12CC2)c1ccccc1 (stereo partly drawn) [Example 136, N-[(1R)-1-phenylethyl]-5-(7H-pyrrolo[2,3-d]pyrimidin-4-yl)-5-azaspiro[2.5]octane-8-carboxamide] | – | 33.8 | 1460 | 111 | 55.1 | – |
| O=C(N[C@@H](CO)Cc1ccccc1)C1CCN(c2ncnc3[nH]ccc23)CC12CC2 (stereo partly drawn) [Example 137, N-[(1R)-1-benzyl-2-hydroxy-ethyl]-5-(7H-pyrrolo[2,3-d]pyrimidin-4-yl)-5-azaspiro[2.5]octane-8-carboxamide] | – | 38 | 1380 | 91.6 | 30.5 | – |
| O=C(OCc1ccccc1)[C@H](CO)NC(=O)[C@H]1CCN(c2ncnc3[nH]ccc23)CC12CC2 [Example 138, Benzyl (2S)-3-hydroxy-2-[[(8S)-5-(7H-pyrrolo[2,3-d]pyrimidin-4-yl)-5-azaspiro[2.5]octane-8-carbonyl]amino]propanoate] | – | 38.2 | 1100 | 90.9 | 112 | – |
| O=C(N[C@H](CO)Cc1ccccc1)C1CCN(c2ncnc3[nH]ccc23)CC12CC2 (stereo partly drawn) [Example 141, N-[(1S)-1-benzyl-2-hydroxy-ethyl]-5-(7H-pyrrolo[2,3-d]pyrimidin-4-yl)-5-azaspiro[2.5]octane-8-carboxamide] | – | 41.2 | 4160 | 52 | 81.6 | – |
| N#Cc1ccc(CNC(=O)[C@@H]2CCN(c3ncnc4[nH]ccc34)CC23CC3)cc1 [Example 145, (8R)-N-[(4-cyanophenyl)methyl]-5-(7H-pyrrolo[2,3-d]pyrimidin-4-yl)-5-azaspiro[2.5]octane-8-carboxamide] | – | 64.4 | 5740 | 176 | 251 | – |
| C[C@@H](NC(=O)[C@H]1CCN(c2ncnc3[nH]ccc23)CC12CC2)[C@@H](O)c1ccc(C#N)cc1 [Example 146, (8S)-N-[(1R,2S)-2-(4-cyanophenyl)-2-hydroxy-1-methyl-ethyl]-5-(7H-pyrrolo[2,3-d]pyrimidin-4-yl)-5-azaspiro[2.5]octane-8-carboxamide] | – | 67.7 | 1840 | 266 | 188 | – |
| O=C(N[C@H](CO)C1CCC1)[C@H]1CCN(c2ncnc3[nH]ccc23)CC12CC2 [Example 147, (8S)-N-[(1S)-1-cyclobutyl-2-hydroxy-ethyl]-5-(7H-pyrrolo[2,3-d]pyrimidin-4-yl)-5-azaspiro[2.5]octane-8-carboxamide] | – | 68.1 | 914 | 162 | 121 | – |
| O=C(N[C@@H](CO)C1CCC1)[C@H]1CCN(c2ncnc3[nH]ccc23)CC12CC2 [Example 148, (8S)-N-[(1R)-1-cyclobutyl-2-hydroxy-ethyl]-5-(7H-pyrrolo[2,3-d]pyrimidin-4-yl)-5-azaspiro[2.5]octane-8-carboxamide] | – | 70.6 | 1080 | 163 | 139 | – |
| O=C(OCC1(CO)CCCCC1)[C@H]1CCN(c2ncnc3[nH]ccc23)CC12CC2 [Example 161, [1-(hydroxymethyl)cyclohexyl]methyl (8S)-5-(7H-pyrrolo[2,3-d]pyrimidin-4-yl)-5-azaspiro[2.5]octane-8-carboxylate] | > 200 | – | – | – | – | – |
